Experiments:
[1] = system: UGT85C2 and UGT91D-like 3; assay: Simultaneous reaction of UGT85C2 and UGT91D-like 3 (LC-MS analysis); type: biochemical, stevia; settings: FIG. 4 panel 3
UGT85C2 = biological target: T1, UGT85C2 (Stevia rebaudiana, UniProt Q6VAB0, A65S/E71Q/K220T); assay: Assay for enzyme activity of UGT85C2 (glucosylation with UDP-glucose, LC-MS analysis); type: biochemical; settings: 0.1 mM substrate, 2 mM UDP-glucose, pH 7.0, 30° C., one hour; FIG. 4 panel 1
T1 construct: The ORF fragment of about 1.4 kb from UGT85C2 was excised using the restriction enzyme sites of NdeI and BglII; made in house; host or cells: Escherichia coli BL21 (DE3)
Procedure: Standard conditions for the enzyme reaction were as follows. A reaction solution (2 mM UDP-glucose, 0.1 mM glycosyl acceptor substrate (steviol), 100 mM potassium phosphate buffer (pH 7.0) and 25 μl of purified UGT85C2 enzyme solution) was prepared in distilled water to become 50 μl, and reacted at 30° C. for an hour. The LC-MS analysis was performed for 5 μl of the enzyme reaction solution under the following conditions.
Column: Waters Sunfire C18 3.5 um 2.0 mm I.D.×20 mm
Moving phase: A: MilliQ Water (+0.05% formic acid), B: MeCN
Gradient: linear gradient of B from 15% to 55% (20 mins.)

[2] = biological target: T2, UGT85C2 and UGT91D-like 3 (Stevia rebaudiana, UniProt Q6VAB0, A65S/E71Q/K220T); assay: Simultaneous reaction of UGT85C2 and UGT91D-like 3 (LC-MS analysis); type: biochemical; settings: concluded from simultaneous reaction, FIG. 4 panel 3
T2 construct: The ORF fragment of about 1.4 kb from UGT85C2 was excised using the restriction enzyme sites of NdeI and BglII; made in house; host or cells: Escherichia coli BL21 (DE3), stated for UGT85C2 only
T2 sequence (Q6VAB0 whole entry A65S/E71Q/K220T, the tested form may be a part): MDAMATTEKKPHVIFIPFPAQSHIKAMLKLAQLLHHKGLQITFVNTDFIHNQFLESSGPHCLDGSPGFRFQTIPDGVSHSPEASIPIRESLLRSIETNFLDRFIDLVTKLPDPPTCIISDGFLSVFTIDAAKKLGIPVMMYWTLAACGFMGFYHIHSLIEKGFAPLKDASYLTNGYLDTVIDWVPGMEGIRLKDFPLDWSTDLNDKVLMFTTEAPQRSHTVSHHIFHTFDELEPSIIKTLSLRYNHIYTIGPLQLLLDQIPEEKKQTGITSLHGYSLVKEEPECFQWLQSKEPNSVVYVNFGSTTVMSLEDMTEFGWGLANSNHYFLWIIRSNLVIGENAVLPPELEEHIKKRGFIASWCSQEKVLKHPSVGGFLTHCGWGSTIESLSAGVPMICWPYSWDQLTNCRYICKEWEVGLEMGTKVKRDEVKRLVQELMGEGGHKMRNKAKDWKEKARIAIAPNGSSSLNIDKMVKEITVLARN

T1 sequence (Q6VAB0 whole entry A65S/E71Q/K220T, the tested form may be a part): as above

| Structure (SMILES) | products formed by simultaneous reaction of UGT85C2 and UGT91D-like 3 [1] | glucosylation of the carboxyl at C19-position by UGT85C2, product additionally formed (UGT85C2) | glucosylation of the hydroxyl at C-13 position by UGT85C2, product formed (UGT85C2) | glucosylation of the carboxyl at C19-position by UGT85C2 protein [2] |
| --- | --- | --- | --- | --- |
| C=C1C[C@@]23CC[C@H]4[C@@](C)(CCC[C@@]4(C)C(=O)O)[C@@H]2CC[C@]1(O)C3 [steviol] | steviolbioside (FIG. 4: panel 3: peak C) and stevioside (FIG. 4: panel 3: peak E) were formed | rubusoside (FIG. 4: panel 1: peak D) with the carboxyl at C19-position being glucosylated was additionally formed | glucosylated (FIG. 4, panel 1: peak A) to form steviolmonoside | – |
| C=C1C[C@@]23CC[C@H]4[C@@](C)(CCC[C@@]4(C)C(=O)O)[C@@H]2CC[C@]1(O[C@@H]1O[C@H](CO)[C@@H](O)[C@H](O)[C@H]1O[C@@H]1O[C@H](CO)[C@@H](O)[C@H](O)[C@H]1O)C3 [steviolbioside] | – | – | – | glucosylates the carboxyl at C19-position of steviolbioside |
